Assay results from the kinase profiling compilation of Christmann-Franck et al. (2016).

Key:
Test in all cases: radiometric filter-binding kinase assay
LCK (mouse) = settings: accession and sequence are those of the human protein
HIPK2 (human) = HIPK2 (human) (UniProt Q9H2X6)
EPHA2 (human) = EPHA2 (human) (UniProt P29317)
MAP3K9 (human) = MAP3K9 (human) (UniProt P80192)
PRKCZ (human) = PRKCZ (human) (UniProt Q05513)
DYRK3 (human) = DYRK3 (human) (UniProt O43781)
ROCK2 (rat) = settings: accession and sequence are those of the human protein
HIPK1 (human) = HIPK1 (human) (UniProt Q86Z02)
CaMK1 (human) = CaMK1 (human) (UniProt Q14012)
PAK4 (human) = PAK4 (human) (UniProt O96013)
MAPKAPK5 (human) = MAPKAPK5 (human) (UniProt Q8IW41)
RPS6KA5 KD1 KD2 (human) = RPS6KA5 KD1 KD2 (human) (UniProt O75582)
MAP2K6 (human) = MAP2K6 (human) (UniProt P52564)
[1] = system: AKT1 (human), P31749 [S473D]
MARK1 (human) = MARK1 (human) (UniProt Q9P0L2)
BTK (human) = BTK (human) (UniProt Q06187)
NUAK1 (human) = NUAK1 (human) (UniProt O60285)
TAOK1 (human) = TAOK1 (human) (UniProt Q7L7X3)
EPHB3 (human) = EPHB3 (human) (UniProt P54753)
NEK6 (human) = NEK6 (human) (UniProt Q9HC98)
DYRK1A (human) = DYRK1A (human) (UniProt Q13627)
ERBB4 (human) = ERBB4 (human) (UniProt Q15303)
DAPK1 (human) = DAPK1 (human) (UniProt P53355)
MST4 (human) = MST4 (human) (UniProt Q9P289)
IKBKE (human) = IKBKE (human) (UniProt Q14164)
MAPK13 (human) = MAPK13 (human) (UniProt O15264)
PAK6 (human) = PAK6 (human) (UniProt Q9NQU5)
HIPK3 (human) = HIPK3 (human) (UniProt Q9H422)
CSNK2A1 (human) = CSNK2A1 (human) (UniProt P68400)
MAPK14 (human) = MAPK14 (human) (UniProt Q16539)
DYRK2 (human) = DYRK2 (human) (UniProt Q92630)
MARK3 (human) = MARK3 (human) (UniProt P27448)
MAPK11 (human) = MAPK11 (human) (UniProt Q15759)
PAK7 (human) = PAK7 (human) (UniProt Q9P286)
EPHB1 (human) = EPHB1 (human) (UniProt P54762)
EEF2K (human) = EEF2K (human) (UniProt O00418)

MAPKAPK5 (human), sequence (Q8IW41 whole entry, looked up): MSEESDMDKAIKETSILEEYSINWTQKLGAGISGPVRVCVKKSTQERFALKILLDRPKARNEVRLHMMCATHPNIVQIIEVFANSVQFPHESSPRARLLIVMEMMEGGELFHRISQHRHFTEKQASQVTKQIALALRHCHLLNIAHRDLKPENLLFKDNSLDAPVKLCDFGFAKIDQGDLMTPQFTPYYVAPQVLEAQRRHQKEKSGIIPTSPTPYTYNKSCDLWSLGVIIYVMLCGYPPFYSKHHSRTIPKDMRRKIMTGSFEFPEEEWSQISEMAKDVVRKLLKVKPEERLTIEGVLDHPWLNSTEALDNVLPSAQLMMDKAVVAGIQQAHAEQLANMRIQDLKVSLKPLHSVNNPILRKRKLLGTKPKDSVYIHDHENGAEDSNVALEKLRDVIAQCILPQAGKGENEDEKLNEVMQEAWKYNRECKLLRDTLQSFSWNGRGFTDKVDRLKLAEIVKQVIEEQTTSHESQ
MAP3K9 (human), sequence (P80192 whole entry, looked up): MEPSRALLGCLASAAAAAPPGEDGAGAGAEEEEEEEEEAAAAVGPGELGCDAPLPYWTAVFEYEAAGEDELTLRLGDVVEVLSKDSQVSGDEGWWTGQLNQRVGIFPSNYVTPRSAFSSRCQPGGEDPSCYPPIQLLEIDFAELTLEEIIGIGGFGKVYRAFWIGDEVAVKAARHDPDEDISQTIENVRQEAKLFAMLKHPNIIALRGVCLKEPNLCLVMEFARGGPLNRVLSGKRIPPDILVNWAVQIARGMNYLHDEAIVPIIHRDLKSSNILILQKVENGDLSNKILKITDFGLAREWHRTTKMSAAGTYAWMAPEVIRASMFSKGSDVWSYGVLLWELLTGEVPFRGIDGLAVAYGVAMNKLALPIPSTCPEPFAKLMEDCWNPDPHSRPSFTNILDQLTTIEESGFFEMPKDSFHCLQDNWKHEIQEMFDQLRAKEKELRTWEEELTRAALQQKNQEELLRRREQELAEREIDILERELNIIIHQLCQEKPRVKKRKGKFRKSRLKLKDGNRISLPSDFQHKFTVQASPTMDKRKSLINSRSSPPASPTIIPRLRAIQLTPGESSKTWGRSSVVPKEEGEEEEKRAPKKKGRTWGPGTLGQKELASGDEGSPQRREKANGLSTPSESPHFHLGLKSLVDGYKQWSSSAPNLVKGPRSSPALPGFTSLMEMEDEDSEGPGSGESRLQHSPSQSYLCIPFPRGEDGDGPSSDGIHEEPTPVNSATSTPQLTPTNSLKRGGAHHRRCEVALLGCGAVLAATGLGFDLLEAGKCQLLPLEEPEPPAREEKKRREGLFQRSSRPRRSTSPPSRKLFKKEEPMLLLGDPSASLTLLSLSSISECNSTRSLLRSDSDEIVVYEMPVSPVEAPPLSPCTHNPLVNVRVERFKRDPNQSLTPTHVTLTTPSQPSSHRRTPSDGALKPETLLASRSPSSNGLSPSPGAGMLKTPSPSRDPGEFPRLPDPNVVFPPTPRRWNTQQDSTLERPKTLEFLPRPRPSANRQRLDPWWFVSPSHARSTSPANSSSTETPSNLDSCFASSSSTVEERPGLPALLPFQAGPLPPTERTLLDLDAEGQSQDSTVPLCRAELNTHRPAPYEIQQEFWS
PAK7 (human), sequence (Q9P286 whole entry, looked up): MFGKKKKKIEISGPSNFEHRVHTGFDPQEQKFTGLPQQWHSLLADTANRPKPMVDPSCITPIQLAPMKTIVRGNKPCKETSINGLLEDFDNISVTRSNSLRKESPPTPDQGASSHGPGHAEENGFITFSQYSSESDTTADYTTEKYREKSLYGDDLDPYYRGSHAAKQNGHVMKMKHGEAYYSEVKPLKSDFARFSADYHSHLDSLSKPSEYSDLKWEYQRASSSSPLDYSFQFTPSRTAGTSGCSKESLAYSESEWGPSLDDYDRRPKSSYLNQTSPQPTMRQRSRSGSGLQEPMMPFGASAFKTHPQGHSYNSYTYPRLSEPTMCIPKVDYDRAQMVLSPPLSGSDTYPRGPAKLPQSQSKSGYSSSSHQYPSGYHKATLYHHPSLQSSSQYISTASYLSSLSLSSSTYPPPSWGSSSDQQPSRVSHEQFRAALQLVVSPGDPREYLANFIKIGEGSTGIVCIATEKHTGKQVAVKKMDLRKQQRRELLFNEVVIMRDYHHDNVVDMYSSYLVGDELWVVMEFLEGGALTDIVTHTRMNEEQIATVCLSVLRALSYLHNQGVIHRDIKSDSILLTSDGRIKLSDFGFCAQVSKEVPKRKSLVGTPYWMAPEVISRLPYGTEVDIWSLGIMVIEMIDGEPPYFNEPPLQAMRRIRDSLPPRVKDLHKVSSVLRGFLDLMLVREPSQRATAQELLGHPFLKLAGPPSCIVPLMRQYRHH
DAPK1 (human), sequence (P53355 whole entry, looked up): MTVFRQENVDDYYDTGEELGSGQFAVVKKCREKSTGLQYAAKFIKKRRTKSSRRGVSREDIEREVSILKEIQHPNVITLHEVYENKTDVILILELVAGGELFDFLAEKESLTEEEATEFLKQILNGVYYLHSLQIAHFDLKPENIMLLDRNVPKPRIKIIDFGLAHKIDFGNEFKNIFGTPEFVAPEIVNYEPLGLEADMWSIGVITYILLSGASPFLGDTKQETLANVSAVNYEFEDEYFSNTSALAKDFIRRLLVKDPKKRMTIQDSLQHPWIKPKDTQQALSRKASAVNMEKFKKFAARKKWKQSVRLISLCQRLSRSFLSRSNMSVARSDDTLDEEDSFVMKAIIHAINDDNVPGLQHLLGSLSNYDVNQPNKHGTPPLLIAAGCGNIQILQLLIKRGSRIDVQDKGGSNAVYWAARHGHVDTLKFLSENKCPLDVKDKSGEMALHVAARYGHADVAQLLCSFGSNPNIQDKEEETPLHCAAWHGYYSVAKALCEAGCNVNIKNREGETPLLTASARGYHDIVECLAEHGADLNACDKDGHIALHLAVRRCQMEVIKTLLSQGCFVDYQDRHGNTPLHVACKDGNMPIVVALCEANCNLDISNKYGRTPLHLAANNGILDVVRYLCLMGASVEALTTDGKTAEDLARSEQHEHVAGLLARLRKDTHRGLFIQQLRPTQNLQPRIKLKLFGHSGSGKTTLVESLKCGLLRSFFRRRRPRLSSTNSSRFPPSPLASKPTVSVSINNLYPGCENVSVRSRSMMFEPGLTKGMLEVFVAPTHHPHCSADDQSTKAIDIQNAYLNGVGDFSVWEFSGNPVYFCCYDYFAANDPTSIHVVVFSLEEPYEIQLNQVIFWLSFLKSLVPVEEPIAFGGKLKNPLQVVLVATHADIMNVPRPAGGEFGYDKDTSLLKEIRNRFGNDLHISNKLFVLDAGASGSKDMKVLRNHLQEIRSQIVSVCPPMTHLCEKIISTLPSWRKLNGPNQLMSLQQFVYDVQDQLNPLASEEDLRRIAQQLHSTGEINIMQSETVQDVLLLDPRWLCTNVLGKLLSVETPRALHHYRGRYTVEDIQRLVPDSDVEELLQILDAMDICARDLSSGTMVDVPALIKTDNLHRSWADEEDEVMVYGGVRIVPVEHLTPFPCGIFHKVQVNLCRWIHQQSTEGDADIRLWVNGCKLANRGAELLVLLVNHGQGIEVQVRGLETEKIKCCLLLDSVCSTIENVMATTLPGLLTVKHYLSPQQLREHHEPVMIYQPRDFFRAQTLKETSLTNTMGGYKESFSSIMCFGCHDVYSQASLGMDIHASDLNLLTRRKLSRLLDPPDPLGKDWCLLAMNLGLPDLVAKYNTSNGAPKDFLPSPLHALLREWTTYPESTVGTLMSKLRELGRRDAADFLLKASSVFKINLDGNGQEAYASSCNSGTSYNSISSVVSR
HIPK3 (human), sequence (Q9H422 whole entry, looked up): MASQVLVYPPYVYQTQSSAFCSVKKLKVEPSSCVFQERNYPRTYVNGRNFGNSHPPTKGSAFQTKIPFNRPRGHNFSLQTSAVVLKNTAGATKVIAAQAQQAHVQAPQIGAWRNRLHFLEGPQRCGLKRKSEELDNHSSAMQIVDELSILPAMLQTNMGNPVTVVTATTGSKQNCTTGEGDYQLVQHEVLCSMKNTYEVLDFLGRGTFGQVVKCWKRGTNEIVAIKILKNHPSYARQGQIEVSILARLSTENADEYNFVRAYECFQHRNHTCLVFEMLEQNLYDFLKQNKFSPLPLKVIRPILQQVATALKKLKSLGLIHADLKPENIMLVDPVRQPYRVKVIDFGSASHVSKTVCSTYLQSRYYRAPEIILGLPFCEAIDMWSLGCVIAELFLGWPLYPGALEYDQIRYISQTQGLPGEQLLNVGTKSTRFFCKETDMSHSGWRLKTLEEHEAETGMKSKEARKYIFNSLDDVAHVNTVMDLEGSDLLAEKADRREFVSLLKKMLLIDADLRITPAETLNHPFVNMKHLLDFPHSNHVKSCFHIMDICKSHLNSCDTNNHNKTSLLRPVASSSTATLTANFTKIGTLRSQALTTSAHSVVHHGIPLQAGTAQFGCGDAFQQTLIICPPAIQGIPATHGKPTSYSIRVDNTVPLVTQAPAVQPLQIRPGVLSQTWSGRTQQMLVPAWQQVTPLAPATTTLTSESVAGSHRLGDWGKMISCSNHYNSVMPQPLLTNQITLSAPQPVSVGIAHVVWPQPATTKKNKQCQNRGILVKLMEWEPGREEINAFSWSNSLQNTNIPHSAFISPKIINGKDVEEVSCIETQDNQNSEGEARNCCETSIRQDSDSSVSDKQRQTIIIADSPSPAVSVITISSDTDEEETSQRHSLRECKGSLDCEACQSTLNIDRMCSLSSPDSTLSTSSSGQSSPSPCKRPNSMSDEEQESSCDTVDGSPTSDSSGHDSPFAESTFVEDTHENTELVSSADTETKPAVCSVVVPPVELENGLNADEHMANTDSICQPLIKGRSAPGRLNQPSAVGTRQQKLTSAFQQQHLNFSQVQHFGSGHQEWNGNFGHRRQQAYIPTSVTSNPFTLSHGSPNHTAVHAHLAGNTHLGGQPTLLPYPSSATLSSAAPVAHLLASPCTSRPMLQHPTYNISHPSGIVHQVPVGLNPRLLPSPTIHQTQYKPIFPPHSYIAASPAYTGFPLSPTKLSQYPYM

## CN(C)C/C=C/C(=O)Nc1cccc(C(=O)Nc2ccc(Nc3nccc(-c4cccnc4)n3)cc2)c1
LCK (mouse); compound 0.1 µM
  residual activity: 95%
LCK (mouse); compound 1.0 µM
  residual activity: 101%
HIPK2 (human); compound 0.1 µM
  residual activity: 85%
HIPK2 (human); compound 1.0 µM
  residual activity: 46%
EPHA2 (human); compound 0.1 µM
  residual activity: 110%
EPHA2 (human); compound 1.0 µM
  residual activity: 125%
MAP3K9 (human); compound 0.1 µM
  residual activity: 72%
MAP3K9 (human); compound 1.0 µM
  residual activity: 39%
PRKCZ (human); compound 0.1 µM
  residual activity: 112%
PRKCZ (human); compound 1.0 µM
  residual activity: 103%
DYRK3 (human); compound 0.1 µM
  residual activity: 81%
DYRK3 (human); compound 1.0 µM
  residual activity: 79%
ROCK2 (rat); compound 0.1 µM
  residual activity: 89%
ROCK2 (rat); compound 1.0 µM
  residual activity: 71%
HIPK1 (human); compound 0.1 µM
  residual activity: 86%
HIPK1 (human); compound 1.0 µM
  residual activity: 78%
CaMK1 (human); compound 0.1 µM
  residual activity: 87%
CaMK1 (human); compound 1.0 µM
  residual activity: 92%
PAK4 (human); compound 0.1 µM
  residual activity: 84%
PAK4 (human); compound 1.0 µM
  residual activity: 66%
MAPKAPK5 (human); compound 0.1 µM
  residual activity: 96%
MAPKAPK5 (human); compound 1.0 µM
  residual activity: 85%
RPS6KA5 KD1 KD2 (human); compound 0.1 µM
  residual activity: 88%
RPS6KA5 KD1 KD2 (human); compound 1.0 µM
  residual activity: 91%
MAP2K6 (human); compound 0.1 µM
  residual activity: 97%
MAP2K6 (human); compound 1.0 µM
  residual activity: 91%
[1]; compound 0.1 µM
  residual activity: 92%
[1]; compound 1.0 µM
  residual activity: 104%
MARK1 (human); compound 0.1 µM
  residual activity: 91%
MARK1 (human); compound 1.0 µM
  residual activity: 80%
BTK (human); compound 1.0 µM
  residual activity: 85%
NUAK1 (human); compound 0.1 µM
  residual activity: 35%
NUAK1 (human); compound 1.0 µM
  residual activity: 82%
TAOK1 (human); compound 0.1 µM
  residual activity: 96%
EPHB3 (human); compound 0.1 µM
  residual activity: 101%
NEK6 (human); compound 0.1 µM
  residual activity: 88%
NEK6 (human); compound 1.0 µM
  residual activity: 96%
DYRK1A (human); compound 0.1 µM
  residual activity: 97%
DYRK1A (human); compound 1.0 µM
  residual activity: 85%
ERBB4 (human); compound 1.0 µM
  residual activity: 106%
DAPK1 (human); compound 0.1 µM
  residual activity: 90%
DAPK1 (human); compound 1.0 µM
  residual activity: 83%
MST4 (human); compound 0.1 µM
  residual activity: 98%
MST4 (human); compound 1.0 µM
  residual activity: 104%
IKBKE (human); compound 0.1 µM
  residual activity: 97%
IKBKE (human); compound 1.0 µM
  residual activity: 98%
MAPK13 (human); compound 0.1 µM
  residual activity: 106%
MAPK13 (human); compound 1.0 µM
  residual activity: 100%
PAK6 (human); compound 0.1 µM
  residual activity: 87%
PAK6 (human); compound 1.0 µM
  residual activity: 103%
HIPK3 (human); compound 0.1 µM
  residual activity: 113%
CSNK2A1 (human); compound 0.1 µM
  residual activity: 80%
CSNK2A1 (human); compound 1.0 µM
  residual activity: 81%
MAPK14 (human); compound 0.1 µM
  residual activity: 98%
MAPK14 (human); compound 1.0 µM
  residual activity: 113%
DYRK2 (human); compound 1.0 µM
  residual activity: 56%
MARK3 (human); compound 0.1 µM
  residual activity: 101%
MARK3 (human); compound 1.0 µM
  residual activity: 76%
MAPK11 (human); compound 0.1 µM
  residual activity: 96%
MAPK11 (human); compound 1.0 µM
  residual activity: 82%
PAK7 (human); compound 0.1 µM
  residual activity: 89%
PAK7 (human); compound 1.0 µM
  residual activity: 91%
EPHB1 (human); compound 0.1 µM
  residual activity: 93%
EPHB1 (human); compound 1.0 µM
  residual activity: 86%
EEF2K (human); compound 0.1 µM
  residual activity: 97%
EEF2K (human); compound 1.0 µM
  residual activity: 101%

## COc1ccc(-n2ncc3cnc(Nc4cc(OC)c(OC)c(OCCCN5CCN(C)CC5)c4)nc32)cc1
LCK (mouse); compound 0.1 µM
  residual activity: 10%
LCK (mouse); compound 1.0 µM
  residual activity: 4%
HIPK2 (human); compound 0.1 µM
  residual activity: 31%
HIPK2 (human); compound 1.0 µM
  residual activity: 10%
EPHA2 (human); compound 0.1 µM
  residual activity: 28%
MAP3K9 (human); compound 0.1 µM
  residual activity: 7%
MAP3K9 (human); compound 1.0 µM
  residual activity: 6%
PRKCZ (human); compound 1.0 µM
  residual activity: 78%
DYRK3 (human); compound 1.0 µM
  residual activity: 10%
ROCK2 (rat); compound 0.1 µM
  residual activity: 49%
ROCK2 (rat); compound 1.0 µM
  residual activity: 25%
HIPK1 (human); compound 0.1 µM
  residual activity: 44%
HIPK1 (human); compound 1.0 µM
  residual activity: 17%
CaMK1 (human); compound 0.1 µM
  residual activity: 67%
CaMK1 (human); compound 1.0 µM
  residual activity: 26%
PAK4 (human); compound 0.1 µM
  residual activity: 29%
PAK4 (human); compound 1.0 µM
  residual activity: 9%
MAPKAPK5 (human); compound 0.1 µM
  residual activity: 98%
MAPKAPK5 (human); compound 1.0 µM
  residual activity: 85%
RPS6KA5 KD1 KD2 (human); compound 0.1 µM
  residual activity: 76%
RPS6KA5 KD1 KD2 (human); compound 1.0 µM
  residual activity: 34%
MAP2K6 (human); compound 0.1 µM
  residual activity: 99%
MAP2K6 (human); compound 1.0 µM
  residual activity: 75%
[1]; compound 0.1 µM
  residual activity: 99%
[1]; compound 1.0 µM
  residual activity: 89%
MARK1 (human); compound 0.1 µM
  residual activity: 63%
MARK1 (human); compound 1.0 µM
  residual activity: 31%
BTK (human); compound 0.1 µM
  residual activity: 22%
BTK (human); compound 1.0 µM
  residual activity: 14%
NUAK1 (human); compound 0.1 µM
  residual activity: 16%
NUAK1 (human); compound 1.0 µM
  residual activity: 13%
TAOK1 (human); compound 0.1 µM
  residual activity: 95%
TAOK1 (human); compound 1.0 µM
  residual activity: 74%
EPHB3 (human); compound 0.1 µM
  residual activity: 86%
EPHB3 (human); compound 1.0 µM
  residual activity: 16%
NEK6 (human); compound 0.1 µM
  residual activity: 89%
NEK6 (human); compound 1.0 µM
  residual activity: 59%
DYRK1A (human); compound 0.1 µM
  residual activity: 57%
DYRK1A (human); compound 1.0 µM
  residual activity: 12%
ERBB4 (human); compound 0.1 µM
  residual activity: 60%
ERBB4 (human); compound 1.0 µM
  residual activity: 17%
DAPK1 (human); compound 0.1 µM
  residual activity: 51%
DAPK1 (human); compound 1.0 µM
  residual activity: 15%
MST4 (human); compound 0.1 µM
  residual activity: 90%
MST4 (human); compound 1.0 µM
  residual activity: 67%
IKBKE (human); compound 0.1 µM
  residual activity: 28%
IKBKE (human); compound 1.0 µM
  residual activity: 18%
MAPK13 (human); compound 1.0 µM
  residual activity: 68%
PAK6 (human); compound 0.1 µM
  residual activity: 62%
PAK6 (human); compound 1.0 µM
  residual activity: 24%
HIPK3 (human); compound 0.1 µM
  residual activity: 69%
HIPK3 (human); compound 1.0 µM
  residual activity: 19%
CSNK2A1 (human); compound 0.1 µM
  residual activity: 33%
CSNK2A1 (human); compound 1.0 µM
  residual activity: 6%
MAPK14 (human); compound 0.1 µM
  residual activity: 98%
MAPK14 (human); compound 1.0 µM
  residual activity: 85%
DYRK2 (human); compound 0.1 µM
  residual activity: 50%
DYRK2 (human); compound 1.0 µM
  residual activity: 16%
MARK3 (human); compound 0.1 µM
  residual activity: 41%
MARK3 (human); compound 1.0 µM
  residual activity: 16%
MAPK11 (human); compound 0.1 µM
  residual activity: 103%
MAPK11 (human); compound 1.0 µM
  residual activity: 95%
PAK7 (human); compound 0.1 µM
  residual activity: 53%
PAK7 (human); compound 1.0 µM
  residual activity: 18%
EPHB1 (human); compound 0.1 µM
  residual activity: 8%
EPHB1 (human); compound 1.0 µM
  residual activity: 3%
EEF2K (human); compound 0.1 µM
  residual activity: 100%
EEF2K (human); compound 1.0 µM
  residual activity: 91%
